From paper PMC10290391, “Targeted degradation of ⍺-synuclein aggregates in Parkinson’s disease using the AUTOTAC technology” (Molecular Neurodegeneration, 2023)

Legend:
p62 and α-syn aggregates = target: T1, p62 and α-syn aggregates (Homo sapiens, UniProt P37840+Q13501); test: Proximity ligation assay (PLA) of p62 and α-syn in HEK293A cells; format: cell-based; settings: 1 μM, 6 h
T1 construct: Recombinant human α-syn (1–140) were obtained from NKMAX (SNA2001L); endogenous in cells; host or cells: HEK293A cells transduced with h-α-syn PFFs
Protocol: Proximity ligation assays were conducted using a PLA kit (Sigma-Aldrich) according to the manufacturer’s protocol. 293A Cells were seeded on coverslips and cultured for 24 h. After fixation with 4% PFA, the cells were permeabilized with 0.1% Triton X-100. The cells were incubated with antibodies for p62 (Abcam; ab56319) and alpha-synuclein aggregates (Abcam; ab209538) overnight at 4 °C. After washing with PLA washing buffer, the cells were hybridized, ligated and amplified by rolling circle. Coverslips were mounted on slides using mounting medium containing DAPI, and the images were captured by confocal microscopy (Zeiss).

p62 = target: T2, p62 (Homo sapiens, UniProt Q13501); test: Western blot of p62 oligomerization in HeLa cells; format: cell-based
T2 construct: endogenous in cells; host or cells: HeLa
T2 sequence (Q13501 whole entry): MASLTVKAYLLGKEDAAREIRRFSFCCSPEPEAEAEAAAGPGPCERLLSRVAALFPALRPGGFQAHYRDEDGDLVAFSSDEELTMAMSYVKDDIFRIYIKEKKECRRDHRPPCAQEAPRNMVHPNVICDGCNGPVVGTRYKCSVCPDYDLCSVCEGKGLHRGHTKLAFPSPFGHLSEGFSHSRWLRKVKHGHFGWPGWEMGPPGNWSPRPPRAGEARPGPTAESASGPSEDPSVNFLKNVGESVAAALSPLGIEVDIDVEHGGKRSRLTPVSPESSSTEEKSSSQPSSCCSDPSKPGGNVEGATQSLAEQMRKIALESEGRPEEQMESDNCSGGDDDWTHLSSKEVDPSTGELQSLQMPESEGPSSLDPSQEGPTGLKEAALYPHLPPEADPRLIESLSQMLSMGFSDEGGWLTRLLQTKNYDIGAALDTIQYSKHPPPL
Protocol: (§1) For the separation of Triton X-100 soluble and insoluble fractions for monitoring α-syn, cells were washed with PBS and lysed in Triton X-100 buffer (50 mM Tris / 150 mM NaCl / 100 mM EDTA / 1% Triton X-100, pH 7.6) containing protease and phosphatase inhibitors for 30 min on ice. The lysates were centrifuged at 12,000 rpm for 30 min, and the soluble supernatant was taken. The remaining pellets were washed with Triton X-100 buffer, followed by centrifugation at 12,000 rpm for 20 min. The supernatants were discarded, and the resulting insoluble pellets were resuspended in laemli buffer containing 1% SDS. Samples were subjected to SDS-PAGE. After blocking with 5% milk and washing process, the membranes were incubated with primary antibodies overnight at 4 °C, followed by washing with PBS-T and incubation with horseradish peroxidase-conjugated secondary antibodies. Immunoreactive bands were detected using ECL reagents (Thermo Fisher Scientific, 32,106). For non-reducing SDS-PAGE, cell lysates were mixed with 4 × laemli buffer containing no 2-mercaptoethanol. For reducing SDS-PAGE, cells were lysed by RIPA buffer (150 mM NaCl, 1% Triton X-100, 1% sodium deoxycholate, 0.1% Tris–HCl, pH 7.5, 2 mM EDTA) and prepared with 5 × protein sample buffer containing 2-mercaptoethanol (Elpis Biotech, EBA-1052). Densitometry of developed bands was analyzed with ImageJ (NIH, Bethesda).

[1] = tested on: high molecular weight α-syn aggregates; test: Dot blot / filter trap assay for α-syn aggregates in differentiated SH-SY5Y α-syn A53T cells; format: cell-based, human; settings: 100 nM, 24 h; 450 nm filter
Protocol: Differentiated SH-SY5Y α-syn A53T cells were treated with 2 μg/ml of a-syn PFFs, and after 24 h cells were treated with 100 nM of ATC161 for 24 h. The cells were lysed in RIPA buffer for 30 min on ice and then centrifuged at 13,000 rpm for 20 min at 4 ℃. The supernatants were aspirated and transferred into a new tube kept on ice. Protein concentration was determined by a BCA assay. The filter trap assay was performed with 5 μg of total protein diluted in 100 μL of lysate. A nitrocellulose membrane (pore size: 0.45 μm) was placed on the filter trap apparatus (96-well Bio-Dot®). Lysates were loaded and allowed to pass through the membrane under vacuum. Aggregated α-syn levels were determined by immunoblotting using an anti-α-syn aggregate antibody [MJFF-14–6-4–2] (1:2000; Abcam, ab209538).

[2] = tested on: HEK293A cells transduced with h-α-syn PFFs; test: Immunocytochemistry in HEK293A cells transduced with h-α-syn PFFs; format: cell-based, human
Protocol: Recombinant human α-syn (1–140) were obtained from NKMAX (SNA2001L). In vitro fibrillization was performed by diluting recombinant α-syn monomers to 1 mg/mL in sterile PBS, then incubating at 37 °C with constant agitation at 1,000 rpm for seven days. The fibrillization was verified by thioflavin T and sedimentation assays. The ability to form phospho-α-syn (S129) was also assessed by immunocytochemistry. In addition, to determine whether the generated PFFs act as seeds to accumulate endogenous α-syn, an adenovirus that expresses c-Myc-His-tagged human α-syn (gifted from lab of S.J.L) was used to infect cultured cells at an MOI of 10, followed by a fractionation assay. The administration of PFFs into 293A cells was done with protein delivery reagent (BioPORTER QuikEase Protein Delivery Kit, Sigma) following the provider’s instruction. The mouse α-syn PFFs were obtained from StressMarq (SPR-324). Prior to treatment, PFFs were sonicated at 20% amplitude, 1 s pulse on and off for 30 s (SONICS Vibra Cell sonicator, Merck Z412619). For cells, α-syn monomers and PFFs were transduced at 1 µg/mL.
Cells were fixed with 4% paraformaldehyde (PFA) for 20 min at room temperature, followed by permeabilization with 0.1% Triton X-100 buffer for 15 min. The cells were blocked with 2% bovine serum albumin (BSA) in PBS for 1 h at room temperature. Then, the cells were incubated with primary antibodies diluted in the blocking buffer overnight at 4 °C. After washing with PBS, the slides were incubated with AlexaFluor-conjugated secondary antibodies for 1 h at room temperature. After mounting the slides with mounting solution containing DAPI, the images were captured on an LSM700 confocal microscopy (Carl Zeiss).

LC3 = test: Western blot of LC3 lipidation (LC3-I into LC3-II) in HeLa cells; format: cell-based; settings: 1 μM, 24 h
Protocol: as §1

SH-SY5Y α-syn A53T cells = test: MitoTracker Red analysis in SH-SY5Y α-syn A53T cells treated with rotenone; format: cell-based, human; settings: 0.1 μM, 24 h; vs vehicle-treated cells
Protocol: Adenovirus overexpressing human wild-type SNCA was kindly gifted from the lab of S.J.L. COS7 cells were infected with the adenovirus overexpressing human α-syn at 0.8 × 10^8 pfu and incubated at 37 °C for 24 h. When the confluency reached 90%, the cells were split onto 6-well plates for further experiments. The α-syn aggregation was induced by the treatment of 100 nM rotenone (Sigma-Aldrich, R8875) for 56 h. For the MitoTracker analyses in SH-SY5Y α-syn A53T cells, rotenone was treated at 1 µM for 48 h with the co-treatment of 100 nM ATC161 for 24 h, then MitoTracker Red CMXRos (Invitrogen; M7512) was used to stain intact mitochondria following the manufacturer’s instruction.

[3] = Brain penetration of ATC161 in TauP301L-BiFC AD mouse model; format: in vivo, mice; settings: after 4 h of oral administration
Protocol: Supplementary file 13024_2023_630_MOESM1_ESM.eps: Additional file 1: Supplementary figure 1. Drug profiles of ATL and Autotac compounds. A, drug profiles of ATL compounds. Tissue concentrations and oral bioavailability were measured in ICR male mice upon 5 mg/kg oral administration of each ATL compound. B, structures of ATC161~164. C, Pharmacokinetic study of ATC161 conducted in male ICR mice otherwise indicated. M.W. represents molecular weight. The plasma exposure and the half-life were determined upon either POor IPATC161 administration. The drug tissue exposure was determined in Tau301L BiFC mice. IV refers to intravenous injection.

Compound: Fc1ccc(COc2cccc(CNCCOCCOCCNc3cccc(-c4cc(-c5ccc6c(c5)OCO6)n[nH]4)c3)c2)cc1 [ATC161, 3-(3-(benzo[d][1,3]dioxol-5-yl)-1H-pyrazol-5-yl)-N-(2-(2-(2-((3-((4-fluorobenzyl)oxy)benzyl)amino)ethoxy)ethoxy)ethyl)aniline]
- PLA+ signals of p62 with α-syn monomers (p62 and α-syn aggregates; cells transduced with α-syn monomers): failed to induce PLA^+ signals
- interaction between p62 and α-syn aggregates (PLA puncta) (p62 and α-syn aggregates; α-syn PFF-transduced cells): dramatically increased the number and sizes of PLA puncta
- p62 oligomerization compared with the other Autotac compounds (p62; 1 μM, 24 h): most efficiently facilitated p62 oligomerization
- concentration inducing p62 oligomerization (p62; dose-dependent up to 1,000 nM): ~ 1 nM
- degradation of high molecular weight α-syn aggregates [1]: induced the degradation of high molecular weight α-syn aggregates
- number of phospho-H2AX+ foci (DNA double strand breaks) ([2]; 0.1 μM, 48 h): robust efficacy to reduce the number of phospho-H2AX^+ foci
- reduction in number of α-syn+ cytosolic puncta ([2]; 1 μM, 24 h): 55%
- lipidation of LC3 into LC3-II compared with ATC162 (LC3): induced the lipidation of LC3 into LC3-II more efficiently
- MitoTracker fluorescence (mitochondrial integrity) (SH-SY5Y α-syn A53T cells): increased level of MitoTracker signals
- Kp at 4 h [3]: ~0.1
